Results from ChEMBL document CHEMBL4699425, “Active learning effectively identifies a minimal set of maximally informative and asymptotically performant cytotoxic structure-activity patterns in NCI-60 cell lines” (2020).
The source made the active and inactive calls. The rule behind the calls is not given here.

System: SK-MEL-2
Test: Growth inhibition of human SK-MEL-2 cells
Assay type: functional

GI50 (read-out: GI50) | GI50 (read-out: pGI50 (converted)) | Compound | growth inhibition (GI)
 |  | CC1C(c2ccccc2O)c2cc3c(cc2OC1N1CCCC1)OCO3 (stereo unspecified) | inactive
0.874 µM | 0.875 µM | O=C1c2cccnc2-c2nc(-c3ccccn3)cc3c2c1nc1ccccc13 | 
15 µM | 15 µM | Cc1ccc(-c2cc3c4c(nc5ccccc53)C(=O)c3cccnc3-c4n2)cc1 | 
 |  | COc1cc(C2c3cc4c(cc3OC(N3CCCC3)C2C)OCO4)cc(OC)c1OC (stereo unspecified) | Active
